Patent US20010044445A1, “AZOLE INHIBITORS OF CYTOKINE PRODUCTION” (priority 1999, published 2001)

How the values were obtained:
[1] = system: IL-2; test: CD3 and CD28 Activation of Peripheral Blood T Cells and Determination of Secreted IL-2 Levels (C28 HU Assay); assay type: cell-based, Human; settings: PBMC stimulated with anti-CD3 and anti CD28 mAbs, 24 hour; for inhibition at 1 µM: Homo sapiens, concentration 1 μM (in c2), read-out: % Inhibition of IL-2 secretion (At concentrations of 1, 10, or 100 μM)
Method: Human peripheral blood mononuclear cells were cultured in RPMI 1640 medium supplemented with 10 μg/ml gentamicin, 50 μM 2-mercaptoethanol, 1X MEM non-essential amino acids (Sigma Chemical Co., St. Louis, Mo.), 100 U/ml sodium penicillin G, 100 μg/ml streptomycin sulfate, 2 mM L-glutamine, 1 mM sodium pyruvate (Life Technologies, Grand Island, N.Y.) and 10% fetal bovine serum (Hyclone, Logan, Utah) at 37° C. with 5% CO2.
Human peripheral blood mononuclear cells (PBMC) were isolated by Ficoll-Hypaque seperation. PBMCs were stimulated with a combination of immobilized anti-CD3 and soluble anti CD28 mAbs as described in Faltynek, et al. J. Enzyme Inhibition 1995, 9, 111-122, hereby incorporated by reference. Following a 24 hour incubation, cell supernatants were harvested and IL-2 levels were determined. 100 μl of 5 μg/ml monoclonal murine anti-human IL-2 antibody (Biosource International) in D-PBS was added to 96 well Maxisorb plates (Nunc) and incubated at 4° C. overnight. Plates were washed 4 times with D-PBS containing 0.05% Tween 20 (wash buffer) and blocked with D-PBS containing 1% BSA and 10 mM NaN3 (Diluent/Blocking buffer) for 1-3 hours at room temperature or overnight at 4° C. Plates were washed and recombinant human IL-2 diluted (at 10,000, 5,000, 2,500, 1,250, 625, 312.5, 156.25, 78, 39, 20 pg/ml) in diluent/blocking buffer containing a matched percentage of complete RPMI 1640 medium as the unknown samples. Tissue culture supernatant at various dilutions were added in triplicate at 100 μl/well. Plates were incubated for 2 hours at room temperature and washed 4 times with wash buffer. 100 pl of rabbit anti-human IL-2 (10 μg/ml, Genzyme) was added and incubated for 1 hour at room temperature. The incubation was followed by 4 washes and subsequent addition of 100 pl of 1:2000 dilution of alkaline phosphatase-conjugated goat anti-rabbit F(ab′)2 (Biosource International). After 1 hour the plates were washed 4 times and 100 μl of pNPP (Southern Biotech or Sigma) at 1 mg/ml in buffer was added. Color development was allowed to proceed at room temperature for 20 minutes before addition of 50 μl of 2 N NaOH. Absorbance at 405 nm was determined using a plate reader (Molecular Devices). IL-2 concentrations were calcualted using SoftMax (Molecular Devices) based on the IL-2 standard solutions.

[2] = system: Human peripheral blood mononuclear cells; test: Human Concanavalin-A Proliferation Assay (Con HU Assay); assay type: cell-based; settings: Homo sapiens, PBMC, concanavalin-A stimulated human PBMC, tritiated thymidine
Outline: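 Proliferation read as tritiated thymidine uptake (0.5 μCi/well, 6 h pulse on day 3) in human PBMC cultured 3 days with 2.5 μg/ml (final) concanavalin-A. Cells, 50,000 per well in supplemented RPMI 1640 with 10% FBS, received compound 15 min before mitogen.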

Compound | IC50 ([1]; IL-2 secretion) | melting point | inhibition at 1 µM [1] | IC50 [2]
O=C(Nc1ccc(-n2nc(C(F)(F)F)cc2C(F)(F)F)cc1)Nc1ccc(C(F)(F)F)cc1 [Example 33, N-[4-[3,5-bis(trifluoromethyl)-1H-pyrazol-1-yl]phenyl]-N′-[4-(trifluoromethyl)phenyl]urea] | – | – | 6% | –
O=C(Nc1ccc(-n2nc(C(F)(F)F)cc2C(F)(F)F)cc1)C12CC3CC(CC(C3)C1)C2 [Example 62] | 5040 nM | – | – | –
O=C(Nc1ccc(-n2nc(C(F)(F)F)cc2C(F)(F)F)cc1)c1cnnc2ccccc12 [Example 118, N-[4-[3,5-bis(trifluoromethyl)-1H-pyrazol-1-yl]phenyl]-4-cinnolinecarboxamide] | – | – | 27% | –
CC(C)(Oc1ccc(Cl)cc1)C(=O)Nc1ccc(-n2nc(C(F)(F)F)cc2C(F)(F)F)cc1 [Example 155, N-[4-[3,5-bis(trifluoromethyl)-1H-pyrazol-1-yl]phenyl]-2-(4-chlorophenoxy)-2-methylpropanamide] | – | – | 8% | –
COc1cc(C(F)(F)F)nn1-c1ccc(NC(=O)c2snnc2C)cc1 [Example 314, N-(4-(5-methoxy-3-(trifluoromethyl)-1H-pyrazol-1-yl)phenyl)-4-methyl-1,2,3-thiadiazole-5-carboxamide] | – | 159 to 160 °C | – | 246 nM
CC(=O)c1cc(C(F)(F)F)nn1-c1ccc(NC(=O)c2cccnc2F)cc1 [Example 315, N-(4-(5-acetyl-3-(trifluoromethyl)-1H-pyrazol-1-yl)phenyl)-2-fluoronicotinamide] | – | 188 to 189 °C | – | 320 nM
Cc1nnsc1C(=O)Nc1ccc(-n2nc(C(F)(F)F)cc2OC(F)F)cc1 [Example 323, N-(4-(5-(difluoromethoxy)-3-(trifluoromethyl)-1H-pyrazol-1-yl)phenyl)-4-methyl-1,2,3-thiadiazole-5-carboxamide] | – | 122 to 123 °C | – | 238 nM
O=C(Nc1ccc(-n2nc(C(F)(F)F)cc2OC(F)F)cc1)c1cccnc1F [Example 324, N-(4-(5-(difluoromethoxy)-3-(trifluoromethyl)-1H-pyrazol-1-yl)phenyl)-2-fluoronicotinamide] | – | 149 to 150 °C | – | 89 nM
Cc1nnsc1C(=O)Nc1ccc(-n2nc(C(F)(F)F)cc2Br)cc1 [Example 335, N-(4-(5-bromo-3-(trifluoromethyl)-1H-pyrazol-1-yl)phenyl)-4-methyl-1,2,3-thiadiazole-5-carboxamide] | – | 145 to 147 °C | – | 103 nM
Cc1nnsc1C(=O)Nc1ccc(-n2nc(-c3nccs3)cc2C#N)cc1 [Example 340, N-(4-(5-cyano-3-(1,3-thiazol-2-yl)-1H-pyrazol-1-yl)phenyl)-4-methyl-1,2,3-thiadiazole-5-carboxamide] | – | 230 °C | – | 251 nM
O=C(Nc1ccc(-n2nc(C(F)(F)F)cc2Br)cc1)c1cccc(F)c1F [Example 348, N-(4-(5-bromo-3-(trifluoromethyl)-1H-pyrazol-1-yl)phenyl)-2,3-difluorobenzamide] | – | 109 to 112 °C | – | 114 nM
N#Cc1cc(C(F)(F)F)nn1-c1ccc(NC(=O)c2ccccc2Cl)cc1 [Example 350, 2-chloro-N-(4-(5-cyano-3-(trifluoromethyl)-1H-pyrazol-1-yl)phenyl)benzamide] | – | 162 to 163 °C | – | 240 nM
O=C(Nc1ccc(-n2nc(C(F)(F)F)cc2OC(F)F)cc1)c1ccccc1F [Example 352, N-(4-(5-(difluoromethoxy)-3-(trifluoromethyl)-1H-pyrazol-1-yl)phenyl)-2-fluorobenzamide] | – | 130 to 131 °C | – | 141 nM
O=C(Nc1ccc(-n2nc(C(F)(F)F)cc2OC(F)F)cc1)c1ccccc1Cl [Example 353, 2-chloro-N-(4-(5-(difluoromethoxy)-3-(trifluoromethyl)-1H-pyrazol-1-yl)phenyl)benzamide] | – | 122 to 123 °C | – | 174 nM
O=C(Nc1ccc(-n2nc(C(F)(F)F)cc2OC(F)F)cc1)c1cccc(F)c1F [Example 354, N-(4-(5-(difluoromethoxy)-3-(trifluoromethyl)-1H-pyrazol-1-yl)phenyl)-2,3-difluorobenzamide] | – | 154 to 155 °C | – | 75 nM

Continued, in another order:

IC50 ([1]; IL-2 secretion) | melting point | Compound | inhibition at 1 µM [1] | IC50 [2]
– | 167 to 168 °C | COc1cc(C(F)(F)F)nn1-c1ccc(NC(=O)c2ccccc2F)cc1 [Example 313, 2-fluoro-N-(4-(5-methoxy-3-(trifluoromethyl)-1H-pyrazol-1-yl)phenyl)benzamide] | – | 66 nM
– | 167 to 168 °C | CSc1cc(C(F)(F)F)nn1-c1ccc(NC(=O)c2cccnc2F)cc1 [Example 316, 2-fluoro-N-(4-(5-(methylsulfanyl)-3-(trifluoromethyl)-1H-pyrazol-1-yl)phenyl)nicotinamide] | – | 41 nM
– | 153 to 154 °C | COc1cc(C(F)(F)F)nn1-c1ccc(NC(=O)c2cccnc2F)cc1 [Example 317, 2-fluoro-N-(4-(5-methoxy-3-(trifluoromethyl)-1H-pyrazol-1-yl)phenyl)nicotinamide] | – | 186 nM
– | 142 to 143 °C | CSc1cc(C(F)(F)F)nn1-c1ccc(NC(=O)c2ccncc2F)cc1 [Example 320, 3-fluoro-N-(4-(5-(methylsulfanyl)-3-(trifluoromethyl)-1H-pyrazol-1-yl)phenyl)isonicotinamide] | – | 43 nM
– | 160 to 161 °C | COc1cc(C(F)(F)F)nn1-c1ccc(NC(=O)c2ccncc2F)cc1 [Example 321, 3-fluoro-N-(4-(5-methoxy-3-(trifluoromethyl)-1H-pyrazol-1-yl)phenyl)isonicotinamide] | – | 185 nM
– | 135 to 136 °C | O=C(Nc1ccc(-n2nc(C(F)(F)F)cc2OC(F)F)cc1)c1ccncc1F [Example 327, N-(4-(5-(difluoromethoxy)-3-(trifluoromethyl)-1H-pyrazol-1-yl)phenyl)-3-fluoroisonicotinamide] | – | 82 nM
– | 128 to 129 °C | O=C(Nc1ccc(-n2nc(C(F)(F)F)cc2Cl)cc1)c1ccncc1F [Example 328, N-(4-(5-chloro-3-(trifluoromethyl)-1H-pyrazol-1-yl)phenyl)-3-fluoroisonicotinamide] | – | 75 nM
– | 167 to 170 °C | O=C(Nc1ccc(-n2nc(C(F)(F)F)nc2Cl)cc1)c1ccncc1F [Example 336, N-(4-(5-chloro-3-(trifluoromethyl)-1H-1,2,4-triazol-1-yl)phenyl)-3-fluoroisonicotinamide] | – | 1830 nM
– | 116 to 118 °C | O=C(Nc1ccc(-n2nc(C3CCCO3)cc2C(F)(F)F)cc1)c1ccncc1F (stereo not shown) [Example 345, 3-fluoro-N-(4-(3-tetrahydro-2-furanyl-5-(trifluoromethyl)-1H-pyrazol-1-yl)phenyl)isonicotinamide] | – | 273 nM
– | 184 to 185 °C | O=C(Nc1ccc(-n2nc(C(F)(F)F)cc2Cl)cc1)c1ccncc1Cl [Example 346, 3-chloro-N-(4-(5-chloro-3-(trifluoromethyl)-1H-pyrazol-1-yl)phenyl)isonicotinamide] | – | 117 nM
– | 79 to 82 °C | O=C(Nc1ccc(-n2nc(C(F)(F)F)cc2Br)cc1)c1ccncc1Cl [Example 349, N-(4-(5-bromo-3-(trifluoromethyl)-1H-pyrazol-1-yl)phenyl)-3-chloroisonicotinamide] | – | 224 nM
– | 221 to 222 °C | N#Cc1cc(C(F)(F)F)nn1-c1ccc(NC(=O)c2ccncc2Cl)cc1 [Example 351, 3-chloro-N-(4-(5-cyano-3-(trifluoromethyl)-1H-pyrazol-1-yl)phenyl)isonicotinamide] | – | 309 nM
– | 165 to 166 °C | O=C(Nc1ccc(-n2nc(-c3ccoc3)cc2Cl)cc1)c1ccncc1F [Example 356, N-(4-(5-chloro-3-(3-furyl)-1H-pyrazol-1-yl)phenyl)-3-fluoroisonicotinamide] | – | 247 nM
